Data taken from patent publication US11866455B2, “Gold(III) complex, a conjugate of the gold(III) complex, a pharmaceutical composition comprising the gold(III) complex and uses and a process for preparing the gold(III) complex” (UNIVERSIDAD DE ALMERIA, priority 2018, dated 2024).
In brackets after ≈: the same amount, converted by molar mass. Where two headings read alike, the source gives them in different places.

What was measured:
[1] = test system: A. baumannii; experiment: MIC against A. baumannii, alone and in combination with colistine; assay type: cell-based
[2] = test system: MRSA methicillin resistant S. aureus; experiment: Antimicrobial activity (MIC) against S. aureus / MRSA; assay type: cell-based; conditions: Staphylococcus aureus, Cli, Eri, Pen, Lvx
[3] = test system: MRSA methicillin resistant S. aureus; experiment: Antibiofilm activity (MBIC) against MRSA; assay type: cell-based; conditions: Cli, Eri, Pen, Lvx
[4] = Stability studies by 1H and 31P NMR; assay type: physicochemical; conditions: for stability towards reducing agent (31P NMR): CD3CN/H2O
Method: A solution of compound 2f in CD3CN (0.25 mL) was mixed with 0.25 mL of saline phosphate buffer (pH 7.4) in D2O and the mixture was monitored at 37° C. over three days through ^1H and ^31P NMR spectroscopy. […] Such observations show a substantial evidence for the stability of complexes 2 under physiological conditions.
Complexes 2 are also stable in the conditions used for the biological activity assays, as evidenced by the ^31P NMR spectra of a solution of compound 2f in CD3CN (0.25 mL) and 0.25 mL of ISOsensitest culture broth prepared in D2O (FIG. 15).
To gain a more complete picture of the stability and the solution behavior of these gold(III) compounds 2, the spectral changes produced by addition of classical reducing agents, i.e. glutathione (GSH) and ascorbic acid (AsAc) were also examined. Thus, solutions of compound 2f in CD3CN (0.25 mL) were mixed with solutions containing equimolar amounts of either GSH or AsAc in 0.25 mL of H2O.

colistine
MIC ([1]; each antibiotic separately): 64 µg/mL | MIC in combination ([1]; gold(III) complex and colistine used in combination): 1 µg/mL

C[C@H]1COc2c(N3CCN(C)CC3)c(F)cc3c(=O)c(C(=O)O)cn1c23 [Levofloxacin, levofloxacin]
MIC ([2]; MRSA, strain MRSA 1, resistance profile Cip): 128 µg/mL (≈ 354 µM) | MIC ([2]; strain MRSA 2, resistance profile Gen, Cip, read-out: MIC): 64 µg/mL (≈ 177 µM) | MBIC ([3]; strain MRSA 1, resistance profile Cip): >256 mg/L | MBIC ([3]; strain MRSA 2, resistance profile Gen, Cip): 128 mg/L

[Gold(III) 2-((diisopropylamino)(phenyl)phosphorothioyl)phenyl) (pirrolidin-1-dithiocarbamate)] hexafluorophosphate [Compound 2f]
stability in the conditions of the biological activity assays ([4]; CD3CN / ISOsensitest culture broth in D2O): stable | 31P NMR signal of the complex (stability) ([4]; CD3CN / saline phosphate buffer (pH 7.4) in D2O, 37° C., three days): remained unaltered | stability towards reducing agent (31P NMR) ([4]; equimolar ascorbic acid (AsAc)): maintained its chemical integrity | stability towards reducing agent (31P NMR) ([4]; equimolar glutathione (GSH)): maintained its chemical integrity
